The target of the assay is human Cat S (Homo sapiens (Human), UniProt P25774). The assay is described as follows: Cathepsin enzyme inhibition assay (fluorogenic peptide substrate cleavage). In kind it is biochemical. Particulars: human Cathepsin S 1 nM, substrate Z-Val-Val-Arg-AMC 20 μM, pH 6.5; read-out: Ic50 CatS: human. The method, then: Cathepsin Enzyme Inhibition Assay
Enzyme activity is measured by observing the increase in fluorescence intensity caused by cleavage of a peptide substrate containing a fluorophore whose emission is quenched in the intact peptide. • Assay buffer: 100 mM potassium phosphate pH 6.5, EDTA-Na 5 mM, Triton X-100 0.001%, DTT 5 mM. • Enzymes (all at 1 nM): human and mouse Cathepsin S, Cat K, Cat B, Cat L. • Substrate (20 μM): Z-Val-Val-Arg-AMC, except for Cat K which uses Z-Leu-Arg-AMC (both from Bachem). • Z=Benzyloxycarbonyl. • AMC=7-Amino-4-Methyl-Coumarin. • DTT=dithiothreitol. • Final volume: 100 μL. • Excitation 360 nm, Emission 465 nm.
Enzyme is added to the substance dilutions in 96-well microtitre plates and the reaction is started with substrate. Fluorescence emission is measured over 20 minutes, during which time a linear increase is observed in the absence of inhibitor. IC50 are calculated by standard methods.
Inhibition of human Cat S, mouse Cat S, human Cat K, human Cat B, human Cat L and mouse Cat L have been measured separately. The results obtained for human Cat S for representative compounds of the invention are expressed in the following table in μM.

pIC50: −log10 of the molar value. Structures can show the parent of a compound that is named as a salt.

human Cat S, sequence (P25774 115-331): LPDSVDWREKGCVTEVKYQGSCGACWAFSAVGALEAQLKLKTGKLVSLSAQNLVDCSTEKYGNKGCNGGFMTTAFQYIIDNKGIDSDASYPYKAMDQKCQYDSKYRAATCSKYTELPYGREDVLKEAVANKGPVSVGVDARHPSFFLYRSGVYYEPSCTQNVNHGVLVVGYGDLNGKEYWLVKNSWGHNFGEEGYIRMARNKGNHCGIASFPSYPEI

With `N#CC1(NC(=O)[C@@H]2C[C@@H](S(=O)(=O)c3ccccc3Cl)CN2C(=O)C2CCN2C2CCCCC2)CC1` (stereo partly drawn) [Example 1, (2S,4R)-4-(2-Chlorophenylsulfonyl)-N-(1-cyanocyclopropyl)-1-(1-cyclohexylazetidine-2-carbonyl)pyrrolidine-2-carboxamide], the pIC50 was 8.77.

With `N#CC1(NC(=O)[C@@H]2C[C@@H](S(=O)(=O)c3ccccc3Cl)CN2C(=O)C2CCN2C2CCC(F)(F)CC2)CC1` (stereo partly drawn) [Example 2, (2S,4R)-4-(2-Chlorophenylsulfonyl)-N-(1-cyanocyclopropyl)-1-(1-(4,4-difluorocyclohexyl)azetidine-2-carbonyl)pyrrolidine-2-carboxamide], the pIC50 was 9.00.

As for `CC1(C)CCC(N2CCC2C(=O)N2C[C@H](S(=O)(=O)c3ccccc3Cl)C[C@H]2C(=O)NC2(C#N)CC2)CC1` (stereo partly drawn) [Example 3, (2S,4R)-4-(2-Chlorophenylsulfonyl)-N-(1-cyanocyclopropyl)-1-(1-(4,4-dimethylcyclohexyl)azetidine-2-carbonyl)pyrrolidine-2-carboxamide], the negative-log IC50 (pIC50) was 8.42.

As to `Cc1nsc(N2CCC(N3CCC3C(=O)N3C[C@H](S(=O)(=O)c4ccccc4Cl)C[C@H]3C(=O)NC3(C#N)CC3)CC2)n1` (stereo partly drawn) [Example 4, (2S,4R)-4-(2-Chlorophenylsulfonyl)-N-(1-cyanocyclopropyl)-1-(1-(1-(3-methyl-1,2,4-thiadiazol-5-yl)piperidin-4-yl)azetidine-2-carbonyl)pyrrolidine-2-carboxamide formate], the pIC50 was 9.05.

Turning to `N#CC1(NC(=O)[C@@H]2C[C@@H](S(=O)(=O)c3ccccc3Cl)CN2C(=O)C2CCN2C2CCOCC2)CC1` (stereo partly drawn) [Example 5, (2S,4R)-4-(2-Chlorophenylsulfonyl)-N-(1-cyanocyclopropyl)-1-(1-(tetrahydro-2H-pyran-4-yl)azetidine-2-carbonyl)pyrrolidine-2-carboxamide formate], the pIC50 is 9.10.

As to `CC(=O)N1CCC(N2CCC2C(=O)N2C[C@H](S(=O)(=O)c3ccccc3Cl)C[C@H]2C(=O)NC2(C#N)CC2)CC1` (stereo partly drawn) [Example 6, (2S,4R)-1-(1-(1-Acetylpiperidin-4-yl)azetidine-2-carbonyl)-4-(2-chlorophenylsulfonyl)-N-(1-cyanocyclopropyl)pyrrolidine-2-carboxamide], the pIC50 is 8.89.

Take `N#CC1(NC(=O)[C@@H]2C[C@@H](S(=O)(=O)c3ccccc3Cl)CN2C(=O)C2CCN2C2CCN(CC(F)(F)F)CC2)CC1` (stereo partly drawn) [Example 7, (2S,4R)-4-(2-Chlorophenylsulfonyl)-N-(1-cyanocyclopropyl)-1-(1-(1-(2,2,2-trifluoroethyl)piperidin-4-yl)azetidine-2-carbonyl)pyrrolidine-2-carboxamide]: the pIC50 is 8.41.

For `CC1(C)CC(N2CCC2C(=O)N2C[C@H](S(=O)(=O)c3ccccc3Cl)C[C@H]2C(=O)NC2(C#N)CC2)CCO1` (stereo partly drawn) [Example 8, (2S,4R)-4-(2-Chlorophenylsulfonyl)-N-(1-cyanocyclopropyl)-1-(1-(2,2-dimethyltetrahydro-2H-pyran-4-yl)azetidine-2-carbonyl)pyrrolidine-2-carboxamide], the pIC50 is 8.60.

Turning to `N#CC1(NC(=O)[C@@H]2C[C@@H](S(=O)(=O)c3ccccc3Cl)CN2C(=O)C2CCN2C2CCCC2)CC1` (stereo partly drawn) [Example 9, (2S,4R)-4-(2-Chlorophenylsulfonyl)-N-(1-cyanocyclopropyl)-1-(1-cyclopentylazetidine-2-carbonyl)pyrrolidine-2-carboxamide], the pIC50 is 8.70.

As to `N#CC1(NC(=O)[C@@H]2C[C@@H](S(=O)(=O)c3ccccc3Cl)CN2C(=O)C2CCN2C2CCSCC2)CC1` (stereo partly drawn) [Example 10, (2S,4R)-4-(2-Chlorophenylsulfonyl)-N-(1-cyanocyclopropyl)-1-(1-(tetrahydro-2H-thiopyran-4-yl)azetidine-2-carbonyl)pyrrolidine-2-carboxamide], the pIC50 is 8.66.

For `CCOC(=O)N1CCC(N2CCC2C(=O)N2C[C@H](S(=O)(=O)c3ccccc3Cl)C[C@H]2C(=O)NC2(C#N)CC2)CC1` (stereo partly drawn) [Example 11, Ethyl 4-(2-((2S,4R)-4-(2-chlorophenylsulfonyl)-2-(1-cyanocyclopropylcarbamoyl)pyrrolidine-1-carbonyl)azetidin-1-yl)piperidine-1-carboxylate], the pIC50 is 8.77.

As to `CS(=O)(=O)N1CCC(N2CCC2C(=O)N2C[C@H](S(=O)(=O)c3ccccc3Cl)C[C@H]2C(=O)NC2(C#N)CC2)CC1` (stereo partly drawn) [Example 12, (2S,4R)-4-(2-Chlorophenylsulfonyl)-N-(1-cyanocyclopropyl)-1-(1-(1-(methylsulfonyl)piperidin-4-yl)azetidine-2-carbonyl)pyrrolidine-2-carboxamide], the pIC50 was 8.57.

In the case of `CCOC(=O)N1CCC(N2CCC2C(=O)N2C[C@H](Sc3ccc(F)cc3Cl)C[C@H]2C(=O)NC2(C#N)CC2)CC1` (stereo partly drawn) [Example 13], the pIC50 is 8.17.

Regarding `CCOC(=O)N1CCC(N2CCC2C(=O)N2C[C@H](S(=O)(=O)c3ccc(F)cc3Cl)C[C@H]2C(=O)NC2(C#N)CC2)CC1` (stereo partly drawn) [Example 14, Ethyl 4-(2-((2S,4R)-4-(2-chloro-4-fluorophenylsulfonyl)-2-(1-cyanocyclopropylcarbamoyl)pyrrolidine-1-carbonyl)azetidin-1-yl)piperidine-1-carboxylate], the pIC50 is 8.82.

In the case of `CCOC(=O)N1CCC(N2CCC2C(=O)N2C[C@H](Sc3ccc(Cl)cc3)C[C@H]2C(=O)NC2(C#N)CC2)CC1` (stereo partly drawn) [Example 15, Ethyl 4-(2-((2S,4R)-4-(4-chlorophenylthio)-2-(1-cyanocyclopropylcarbamoyl)pyrrolidine-1-carbonyl)azetidin-1-yl)piperidine-1-carboxylate], the pIC50 is 6.92.

Regarding `CCOC(=O)N1CCC(N2CCC2C(=O)N2C[C@H](Sc3ccccc3OC)C[C@H]2C(=O)NC2(C#N)CC2)CC1` (stereo partly drawn) [Example 16, Ethyl 4-(2-((2S,4R)-2-(1-cyanocyclopropylcarbamoyl)-4-(2-methoxyphenylthio)pyrrolidine-1-carbonyl)azetidin-1-yl)piperidine-1-carboxylate], the pIC50 was 5.76.

Consider `CCOC(=O)N1CCC(N2CCC2C(=O)N2C[C@H](Sc3ccccc3OC(F)(F)F)C[C@H]2C(=O)NC2(C#N)CC2)CC1` (stereo partly drawn) [Example 17, Ethyl 4-(2-((2S,4R)-2-(1-cyanocyclopropylcarbamoyl)-4-(2-(trifluoromethoxy)phenylthio)pyrrolidine-1-carbonyl)azetidin-1-yl)piperidine-1-carboxylate], for which the pIC50 was 7.18.

Turning to `CCOC(=O)N1CCC(N2CCC2C(=O)N2C[C@H](Sc3cccc(C(F)(F)F)c3)C[C@H]2C(=O)NC2(C#N)CC2)CC1` (stereo partly drawn) [Example 18, Ethyl 4-(2-((2S,4R)-2-(1-cyanocyclopropylcarbamoyl)-4-(3-(trifluoromethyl)phenylthio)pyrrolidine-1-carbonyl)azetidin-1-yl)piperidine-1-carboxylate], the pIC50 was 8.10.

On to `CCOC(=O)N1CCC(N2CCC2C(=O)N2C[C@H](S(=O)(=O)c3cccc(Cl)c3)C[C@H]2C(=O)NC2(C#N)CC2)CC1` (stereo partly drawn) [Example 19, Ethyl 4-(2-((2S,4R)-4-(3-chlorophenylsulfonyl)-2-(1-cyanocyclopropylcarbamoyl)pyrrolidine-1-carbonyl)azetidin-1-yl)piperidine-1-carboxylate], for which the pIC50 was 8.74.

For the compound `CCOC(=O)N1CCC(N2CCC2C(=O)N2C[C@H](S(=O)(=O)c3ccc(C)cc3)C[C@H]2C(=O)NC2(C#N)CC2)CC1` (stereo partly drawn) [Example 20, Ethyl 4-(2-((2S,4R)-2-(1-cyanocyclopropylcarbamoyl)-4-tosylpyrrolidine-1-carbonyl)azetidin-1-yl)piperidine-1-carboxylate], the pIC50 is 8.85.

As for `CCOC(=O)N1CCC(N2CCC2C(=O)N2C[C@H](S(=O)(=O)c3ccccc3OC)C[C@H]2C(=O)NC2(C#N)CC2)CC1` (stereo partly drawn) [Example 21, Ethyl 4-(2-((2S,4R)-2-(1-cyanocyclopropylcarbamoyl)-4-(2-methoxyphenylsulfonyl)pyrrolidine-1-carbonyl)azetidin-1-yl)piperidine-1-carboxylate], the pIC50 is 8.04.

In the case of `CCOC(=O)N1CCC(N2CCC2C(=O)N2C[C@H](S(=O)(=O)c3ccc(Cl)cc3)C[C@H]2C(=O)NC2(C#N)CC2)CC1` (stereo partly drawn) [Example 22, Ethyl 4-(2-((2S,4R)-4-(4-chlorophenylsulfonyl)-2-(1-cyanocyclopropylcarbamoyl)pyrrolidine-1-carbonyl)azetidin-1-yl)piperidine-1-carboxylate], the pIC50 was 8.55.

Turning to `CCOC(=O)N1CCC(N2CCC2C(=O)N2C[C@H](S(=O)(=O)c3ccccc3OC(F)(F)F)C[C@H]2C(=O)NC2(C#N)CC2)CC1` (stereo partly drawn) [Example 23, Ethyl 4-(2-((2S,4R)-2-(1-cyanocyclopropylcarbamoyl)-4-(2-(trifluoromethoxy)phenylsulfonyl)pyrrolidine-1-carbonyl)azetidin-1-yl)piperidine-1-carboxylate], the pIC50 is 8.39.

Regarding `CCOC(=O)N1CCC(N2CCC2C(=O)N2C[C@H](S(=O)(=O)c3cccc(C(F)(F)F)c3)C[C@H]2C(=O)NC2(C#N)CC2)CC1` (stereo partly drawn) [Example 24, Ethyl 4-(2-((2S,4R)-2-(1-cyanocyclopropylcarbamoyl)-4-(3-(trifluoromethyl)phenylsulfonyl)pyrrolidine-1-carbonyl)azetidin-1-yl)piperidine-1-carboxylate], the pIC50 was 8.80.

One may read the pIC50 as the negative decadic logarithm of the IC50, by convention in mol/L.
